Measured values published in patent US7396812B2, “Method for modulating Nod1 activity, use of a MTP related molecule for modulating Nod1 activity, and therapeutic applications thereof” (Institut Pasteur, priority 2003, dated 2008).
“Also recorded” adds a separate entry of the source. Values belong to the molecule of their own block, whether it stands above or below them.

Tests used:
Nod2 [1] = target: T1, Nod2 (Homo sapiens, UniProt Q9HC29); assay: Nod2-dependent activation of NF-κB; type: cell-based; settings: equivalent amounts (10 ng) of muropeptide
T1 construct: expressed in transfected cells
T1 sequence (Q9HC29 whole entry): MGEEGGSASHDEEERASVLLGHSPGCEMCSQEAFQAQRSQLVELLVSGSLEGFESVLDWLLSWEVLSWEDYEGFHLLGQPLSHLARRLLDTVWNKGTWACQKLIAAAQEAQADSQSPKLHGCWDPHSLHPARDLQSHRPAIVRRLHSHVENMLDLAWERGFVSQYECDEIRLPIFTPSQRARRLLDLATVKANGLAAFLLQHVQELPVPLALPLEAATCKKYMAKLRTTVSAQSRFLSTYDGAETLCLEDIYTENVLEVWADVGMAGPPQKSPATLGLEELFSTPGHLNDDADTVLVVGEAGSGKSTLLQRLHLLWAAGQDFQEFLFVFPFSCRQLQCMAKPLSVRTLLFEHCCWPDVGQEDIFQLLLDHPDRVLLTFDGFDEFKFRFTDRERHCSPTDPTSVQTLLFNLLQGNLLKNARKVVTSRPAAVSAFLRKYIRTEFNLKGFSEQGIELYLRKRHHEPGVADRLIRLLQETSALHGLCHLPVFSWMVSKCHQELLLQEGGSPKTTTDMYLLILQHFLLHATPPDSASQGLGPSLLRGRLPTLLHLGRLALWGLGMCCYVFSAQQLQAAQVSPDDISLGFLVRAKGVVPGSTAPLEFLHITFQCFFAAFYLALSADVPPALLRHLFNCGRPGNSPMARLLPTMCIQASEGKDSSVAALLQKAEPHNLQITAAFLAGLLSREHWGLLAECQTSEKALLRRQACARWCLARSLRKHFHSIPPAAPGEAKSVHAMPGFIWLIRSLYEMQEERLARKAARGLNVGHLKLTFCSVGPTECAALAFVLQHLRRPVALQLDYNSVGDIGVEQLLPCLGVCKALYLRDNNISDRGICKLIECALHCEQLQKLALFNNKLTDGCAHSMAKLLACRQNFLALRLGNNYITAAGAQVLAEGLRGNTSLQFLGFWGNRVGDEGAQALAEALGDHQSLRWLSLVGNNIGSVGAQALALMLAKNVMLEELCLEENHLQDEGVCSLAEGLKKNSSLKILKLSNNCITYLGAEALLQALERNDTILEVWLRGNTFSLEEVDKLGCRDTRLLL
Procedure: (§1) Studies examining the activation of NF-κB by LPS, lipid A, lipoproteins or the purified PGNs in cells over-expressing Nod1 were carried out as described by Inohara et al. (N. Inohara et al., 2001). Briefly, HEK293 cells were transfected overnight with 10 ng of Nod1. At the same time, the LPS, lipoproteins or peptidoglycan preparations were added and the NF-κB-dependent luciferase activation was then measured following 24 h of co-incubation.
(§2) NF-κB-dependent luciferase assays were performed in duplicate and data represent at least 3 independent experiments.
In FIG. 2A, PGN muropeptides from N. meningitidis were separated by reverse-phase HPLC and subsequently analysed by mass spectroscopy (see supporting on-line text). N.D.(a), not determined for this particular HPLC fractionation, but found to be O-acetylated dimeric GM-tetrapeptide in subsequent HPLC fractionation and mass spectroscopy analyses. […] N.D.(b), fraction unknown. […] FIG. 2C is a schematic representation of N. meningitidis PGN detailing the Nod1-active motif from fraction 3 (GM-tripeptide) as determined by mass spectroscopy. In FIG. 2D, equivalent amounts (10 ng) of GM-dipeptide (GM-di; synthetic source), GM-tripeptide (GMtri), or GM-tetrapeptide (GM-tetra) were tested for stimulation of Nod1-, Nod2- or TLR2-dependent activation of NF-κB. […]

Nod1 [2] = target: T2, Nod1 (Homo sapiens, UniProt Q9Y239); assay: Nod1-dependent NF-κB-luciferase activation in Nod1-overexpressing HEK293 cells; type: cell-based; set-up: expressed in transfected cells; host or cells: HEK293; settings: for stimulation of the Nod1 pathway (NF-κB activation): LPS, lipid A, lipoprotein preparations, 10 μg (10 μg/ml in b180); for activation of Nod1 by HPLC muropeptide fractions: N. meningitidis PGN muropeptide fractions, 1% of the volume of each fraction; for detection by Nod1 (Nod1-dependent activation of NF-κB): equivalent amounts (10 ng) of muropeptide
T2 sequence (Q9Y239 1-953): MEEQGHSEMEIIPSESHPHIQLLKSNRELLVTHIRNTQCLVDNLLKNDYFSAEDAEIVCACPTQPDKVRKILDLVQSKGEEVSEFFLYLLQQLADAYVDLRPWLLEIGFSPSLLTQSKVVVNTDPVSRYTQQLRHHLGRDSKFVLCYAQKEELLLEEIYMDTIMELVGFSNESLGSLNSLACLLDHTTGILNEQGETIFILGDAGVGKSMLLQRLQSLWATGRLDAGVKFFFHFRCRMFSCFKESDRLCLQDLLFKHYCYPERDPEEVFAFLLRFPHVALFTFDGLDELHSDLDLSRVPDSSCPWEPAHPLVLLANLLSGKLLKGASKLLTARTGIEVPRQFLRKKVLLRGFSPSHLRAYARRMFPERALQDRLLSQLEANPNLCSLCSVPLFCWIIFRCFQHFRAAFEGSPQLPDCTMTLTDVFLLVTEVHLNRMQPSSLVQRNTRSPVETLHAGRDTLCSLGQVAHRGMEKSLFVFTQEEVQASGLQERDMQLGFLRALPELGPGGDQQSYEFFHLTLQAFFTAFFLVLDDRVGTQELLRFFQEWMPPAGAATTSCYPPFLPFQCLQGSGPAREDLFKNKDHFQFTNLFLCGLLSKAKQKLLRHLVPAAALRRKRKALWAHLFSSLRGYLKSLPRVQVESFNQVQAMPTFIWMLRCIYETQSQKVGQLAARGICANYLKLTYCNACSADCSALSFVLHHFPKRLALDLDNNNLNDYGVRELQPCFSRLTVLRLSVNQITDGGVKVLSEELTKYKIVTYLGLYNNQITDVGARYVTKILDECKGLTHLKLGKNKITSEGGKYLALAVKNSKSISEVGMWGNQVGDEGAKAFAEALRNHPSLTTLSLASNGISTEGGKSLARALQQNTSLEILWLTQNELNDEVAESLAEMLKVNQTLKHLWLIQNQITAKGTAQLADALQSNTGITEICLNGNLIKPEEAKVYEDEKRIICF
Procedure: as §1, §2

Nod1 [3] = target: T2, Nod1; assay: Nod1-dependent IL-8 production in HeLa epithelial cells (ELISA); type: cell-based; set-up: expressed in transfected cells; settings: HeLa cells transfected with 10 ng Nod1 plus muropeptide, 18 h
Procedure: To measure Nod1-dependent IL-8 produced in epithelial cells by muropeptides, 5×10^5 HeLa cells were seeded into each well of a twelve well plate and transfected the following day with 10 ng Nod1 plus the individual muropeptides (as described above) or treated with IL-1 as a positive control. Eighteen hours later, supernatants were collected and assayed for IL-8 as previously described (D. J. Philpott et al., 2000) using an ELISA kit (R and D Systems).

[4] = test system: NF-κB p65 in isolated intestinal epithelial cells; assay: NF-κB p65 nuclear translocation in isolated intestinal epithelial cells from wild-type or Nod1-deficient mice; type: cell-based; settings: supernatants microinjected, TNFα 10 ng/ml
Procedure: At least 50 microinjected cells were examined per coverslip and experiments were performed at least 2 times independently with similar results.
Microinjection of Gram-negative but not Gram-positive bacterial supernatants activates NF-κB in isolated intestinal epithelial cells from wild-type mice, as observed by nuclear translocation of the p65 subunit of NF-κB (as described in FIG. 3B).

Nod2 [5] = target: T1, Nod2; settings: previous findings, Girardin et al. 2003; Inohara et al. 2003; cited from earlier work

Molecule: CC(=O)N[C@H]1[C@H](O[C@H]2[C@H](O[C@H](C)C(=O)N[C@@H](C)C(=O)N[C@H](CCC(=O)O)C(N)=O)[C@@H](NC(C)=O)C(O)O[C@@H]2CO)O[C@H](CO)[C@@H](O)[C@@H]1O (stereo partly drawn) [GM-dipeptide]
detection by Nod2 (Nod2-dependent activation of NF-κB) (Nod2 [1]): detects

Molecule: Pam3Cys-Ser-Lys4-OH [synthetic lipopeptide]
stimulation of the Nod1 pathway (NF-κB activation) (Nod1 [2]): not possible to stimulate the Nod1 pathway
stimulation of the Nod1 pathway (NF-κB activation) (Nod1 [2]; listed as lipopeptide): fail to activate the Nod1 pathway

detection by Nod1 of peptidoglycan structures (FIG. 8) (Nod1 [2]): detects
Molecule: CC(=O)N[C@H]1[C@@H](OP(=O)(O)OP(=O)(O)OC[C@H]2O[C@@H](n3ccc(=O)[nH]c3=O)[C@H](O)[C@@H]2O)O[C@H](CO)[C@@H](O)[C@@H]1O[C@H](C)C(=O)N[C@@H](C)C(=O)N[C@H](CCC(=O)N[C@@H](CCC[C@@H](N)C(=O)O)C(=O)O)C(=O)O [UDP-MurTriDAP]

Molecule: GlcNAc-MurNAc-L-Ala-D-Glu-mesoDAP(GlcNAc-MurNAc-L-Ala-D-Glu-mesoDAP-D-Ala)-D-Ala [dimeric GM-tetrapeptide]
activation of Nod1 by HPLC muropeptide fractions (Nod1 [2]): does not activate Nod1

Molecule: GlcNAc-MurNAc-L-Ala-D-Glu-mesoDAP [GM-tripeptide]
production of IL-8 (Nod1 [3]): production of the pro-inflammatory chemokine, IL-8; also recorded: leads to the production
detection by Nod1 of peptidoglycan structures (FIG. 8) (Nod1 [2]): detects
activation of Nod1 by HPLC muropeptide fractions (Nod1 [2]; listed as fraction 3): activates Nod1; also recorded: able to activate Nod1
detection by Nod1 (Nod1-dependent activation of NF-κB) (Nod1 [2]): specifically detects

Molecule: C[C@H](N)C(=O)N[C@H](CCC(=O)NC(CCCC(N)C(=O)O)C(=O)O)C(=O)O (stereo partly drawn) [TriDAP]
detection by Nod1 of peptidoglycan structures (FIG. 8) (Nod1 [2]): detects

Molecule: C[C@H](N)C(=O)N[C@H](CCC(=O)NC(CCCC(N)C(=O)O)C(=O)O)C(=O)O (stereo partly drawn) [tripeptide L-Ala-D-Glu-mesoDAP, L-Ala-D-Glu-mesoDAP]
detection by Nod1 of peptidoglycan structures (FIG. 8) (Nod1 [2]): able to sense

Molecule: TNFα
NF-κB nuclear translocation in Nod1-deficient cells [4]: can efficiently stimulate NF-κB nuclear translocation

stimulation of the Nod1 pathway (NF-κB activation) (Nod1 [2]): could not stimulate the Nod1 pathway
Molecule: lipid A

Molecule: Lpp: the most abundant lipoprotein in E. coli (lipidated)
stimulation of the Nod1 pathway (NF-κB activation) (Nod1 [2]): fail to activate the Nod1 pathway; also recorded: not possible to stimulate the Nod1 pathway

Molecule: CC(=O)N[C@@H]1[C@@H](O[C@H](C)C(=O)N[C@@H](C)C(=O)N[C@H](CCC(=O)O)C(N)=O)[C@H](O)[C@@H](CO)O[C@H]1O [M-dipeptide]
recognition by Nod2 (Nod2 [5]): recognizes

detection by Nod1 of peptidoglycan structures (FIG. 8) (Nod1 [2]): detects
Molecule: CC(=O)NC1C(O)OC(CO)C(O)C1OC(C)C(=O)NC(C)C(=O)NC(CCC(=O)NC(CCCC(N)C(=O)O)C(=O)O)C(=O)O (stereo not drawn) [MurTriDAP]

Molecule: GlcNAc-anhydro-MurNAc-L-Ala-D-GlumesoDAP [anhydrous GM-tripeptide]
activation of Nod1 by HPLC muropeptide fractions (Nod1 [2]): active molecule in fraction 17

Molecule: GlcNAc-MurNAc-L-Ala-D-Glu-mesoDAP-DAla [GM-tetrapeptide]
detection by Nod1 (Nod1-dependent activation of NF-κB) (Nod1 [2]): not sensed by Nod1
